The values that follow come from patent publication US10815237B2, “Antimicrobials and methods of making and using same” (BIOVERSYS AG, priority 2016, dated 2020).

Assay [1] relates to Staphylococcus aureus (S. aureus) 11540 strain. In words: standard microdilution MIC, S. aureus. Format: cell-based. The note with it: Staphylococcus aureus. On the procedure: (§1) The in vitro activity of the compounds of the present disclosure can be determined. Antimicrobial testing is typically performed to determine the minimum inhibitory concentration (MIC). Minimum inhibitory concentrations (MICs) are determined by the microdilution method in a final volume of 100 μl according to protocols outlined by The Clinical and Laboratory Standards Institute (CLSI). Performance standards for reference strains are assessed within the same experimental design to maintain quality control. See, for example, Clinical Laboratory Standards Institute: Methods for dilution antimicrobial susceptibility tests for bacteria that grow aerobically M7-A8. Approved Standard-Eighth Edition. Wayne, Pa.: CLSI; December 2008; and Clinical Laboratory Standards Institute: Performance Standards for Antimicrobial Susceptibility Testing M100-S20; Approved Standard-Twentieth Edition. Wayne, Pa.: CLSI; June 2010.
(§2) The compounds of the present disclosure were tested for antimicrobial activity. The Compounds 1-23 were run against Eschericia coli (E. coli) strain ATCC25922 and against Staphylococcus aureus (S. aureus) 11540 strain using a standard microdilution assay to determine minimum inhibitory concentrations (MICs). […] It will be recognized by one skilled in the art that the compounds can be assessed against other bacterial organisms and that the presentation of data for activity against Eschericia coli and Staphylococcus aureus are illustrative and in no way is intended to limit the scope of the present disclosure. The compounds of the present disclosure can be assayed against a range of other microorganisms depending upon the performance activity desired to be gathered. Furthermore, the “+” and “−” representation and the selection of a cutoff value of 16 micrograms/mL is also illustrative and in no way is intended to limit the scope of the present disclosure.

Assay [2] deals with Chinese hamster ovary (CHO) cells. Briefly: cytotoxicity against CHO cell line (Cell Titer Blue). Format: cell-based. As to conditions: Cricetulus griseus, 24 h, CHO-K1 cells, 24 hours incubation, percent cell kill. How it is done: The compounds of the present disclosure were tested for cytotoxicity against Chinese hamster ovary (CHO) cells.
The assay was performed by seeding CHO—K1 in F12K medium containing 13.33% Fetal Bovine Serum […]. 37.5 μl of cell suspension at a concentration of 9,500 cells/well was plated into each column of a 384-well black clear bottom assay plate with the exception of a negative (no cell) control column, and allowed to adhere for 2 hours. The culture media was then removed from the 175 cm^2 flask(s) and the cell monolayer washed with 10 mL of Phosphate Buffered Saline PBS. 3 mL of Cellstripper™ was then added and the flask was incubated for approximately 5 min at 37° C. The cells were dissociated by agitation and 7 mL of F 12K medium containing 10% FBS was added to the flask. A homogeneous cell suspension was obtained by trituration of the flask. The cells were counted with a hemocytometer by diluting an aliquot of the cell suspension in PBS with 0.4% trypan blue. Typically, a ratio of 100 μl cell suspension to 1800 μl PBS to 100 μl trypan blue was used.
The volume of cell suspension containing the number of cells needed to seed the plate(s) (15.2 mL containing 3.8×10^6 cells) was calculated and transferred to a 50 mL centrifuge tube with the appropriate volume of media. 37.5 μl of cells were added to each well of the 384 well plate except for the negative (no cell) control column. A cytotoxicity 100-fold dilution plate was then prepared by manually pipetting 18 μl of 100% DMSO into two columns of an empty low volume dilution plate. 2 μl of a 50 mM solution of compounds 1-23 from the translation plate were manually pipetted into the corresponding columns of the 100-fold dilution plate. 10 μl of 100% DMSO was manually pipetted into all remaining columns of the 100-fold plate.
A 4-fold cytotoxicity plate was prepared beforehand by manually pipetting 48 μl of F12K media (without DMSO and without FBS) into each well of a matrix 384 well plate. The test samples in the 100-fold dilution plate were mixed and diluted. Ten 2-fold dilutions were performed for each compound in duplicate. The 384 cannula array then transferred 2 μl to the 48 μl of media in the cytotoxicity 4-fold dilution plate. The array was then mixed and 12.5 μl of samples from the cytotoxicity 4-fold dilution plate were transferred to the 37.5 μl of cells and media. The final top concentration of samples at this point in the procedure was 50 μM with 10 subsequent 1:2 dilutions down to […]. The final DMSO concentration were 1% and the final concentration of FBS was 10%.
Cycloheximide was run as a control. Specifically, Cycloheximide was diluted to 0.1 mM from 100 mM stock […] and was added to the cytotoxicity 100-fold plate. Upon addition to the cell plate, a range of 1 μM to 1 nM of cycloheximide was run.
A column separate from the one (referred to above) that served as the negative control was used for cell control wells to which only media was added.
The plates were then incubated for 24 hours at 37° C. and 5% CO2. […] The two columns used earlier to prepare the 100-fold dilution plate by pipetting 18 μl of 100% DMSO contained the samples tested at 200 μM. After the 24 hour incubation period, the 4 μl of Cell Titer blue was added to each well using a Multichannel Matrix pipettor. The plates were returned to the incubator and incubated for an additional 5 hours. Fluorescence (530 nm excitation wavelength/590 nm emission wavelength) was measured on a Wallac Victor microplate reader.
Cell viability was assessed fluorometrically after a 5 hour incubation with resazurin (Cell Titer Blue™), which is reduced by living cells to the fluorescent resorufin.
The average fluorescence for the negative control was determined to obtain the average blank fluorescence. The average blank fluorescence was subtracted from the fluorescence values obtained for all the test agents. The resulting values are the corrected fluorescence. […]

For assay [3], the system named is Eschericia coli (E. coli) strain ATCC25922. Briefly: standard microdilution MIC, E. coli. The assay is classed as cell-based, Escherichia coli. As to conditions: Escherichia coli. How it is done:
as §1, §2

In the case of `C[C@H](N)CCCc1cc(Cl)c(F)c(-c2cc3cn(-c4ccc([C@@H]5CCC[C@@H](CCNC(=N)CN)N5)c(F)c4)c(=O)nc3[nH]2)c1` [Compound 13], the MIC in assay [1] and in assay [3] was at most 16 µg/mL throughout. The IC50 in assay [2] is over 100 µM.

Take `CSc1cc(-n2cc3cc(-c4cc(CCC[C@@H](N)C5CC5)cc(Cl)c4F)[nH]c3nc2=O)cc(F)c1[C@@H]1CCC[C@@H](CCNC(=N)CN)N1CCCF` [Compound 52]: the minimal inhibitory concentration (MIC) in assay [1] and in assay [3] was at most 16 µg/mL in each case. This molecule also registered an IC50 in assay [2] of 15.9 µM.

Consider `Cc1c2cc(-c3cc(CCC[C@H](C)N)cc(Cl)c3F)[nH]c2nc(=O)n1-c1ccc([C@@H]2CCC[C@@H](CCNC(=N)CN)N2)cc1` [Compound 69], for which the MIC in assay [1] and in assay [3] was at most 16 µg/mL in each case. For the same molecule, the IC50 in assay [2] was over 100 µM.

On to `C=C[C@H](N)CCCc1cc(-c2cc3cn(-c4cc(F)c([C@@H]5CCC[C@@H](CCNC(=N)CN)N5CCCF)c(SC)c4)c(=O)nc3[nH]2)cc(C(F)(F)F)c1` [Compound 62], for which the MIC is at most 16 µg/mL in assay [1] and over 16 µg/mL in assay [3]. In assay [2], this molecule returned an IC50 of over 100 µM.

Consider `CSc1cc(-n2cc3cc(-c4cc(CCC[C@H](C)N)cc(C(F)(F)F)c4)[nH]c3nc2=O)cc(F)c1[C@@H]1CCC[C@@H](CCNC(=N)CN)N1CCCF` [Compound 51], for which the MIC in assay [1] was at most 16 µg/mL; in assay [3], over 16 µg/mL. The IC50 in assay [2] was over 100 µM.

As to `CNCC(=N)NCC[C@@H]1CCC[C@@H](c2ccc(-n3cc4cc(-c5cc(CCC[C@H](C)N)cc(Cl)c5F)[nH]c4nc3=O)cc2)N1` [Compound 67], the minimal inhibitory concentration (MIC) in assay [1] and in assay [3] was at most 16 µg/mL in each case. This molecule came in with an IC50 in assay [2] of over 100 µM.

For `C=C[C@H](N)CCCc1cc(Cl)c(F)c(-c2cc3cn(-c4ccc([C@@H]5CCC[C@@H](CCNC(=N)CN)N5CCCF)c(F)c4)c(=O)nc3[nH]2)c1` [Compound 66], the MIC in assay [1] and in assay [3] was at most 16 µg/mL each time. Moreover, in assay [2], the IC50 was found to be 37.3 µM.

Take `CSc1cc(-n2cc3cc(-c4cc(CCC[C@H](C)N)cc(C(F)(F)F)c4)[nH]c3nc2=O)ccc1[C@@H]1CCC[C@@H](CCNC(=N)CN)N1CCCF` [Compound 22]: the minimal inhibitory concentration (MIC) in assay [1] and in assay [3] was at most 16 µg/mL throughout. The same molecule had a half-maximal inhibitory concentration (IC50) in assay [2] of over 100 µM.

For `C[C@H](N)CCCc1cc(Cl)c(F)c(-c2cc3cn(-c4ccc([C@@H]5CCC[C@@H](CCNC(=N)[C@H](N)CO)N5)cc4)c(=O)nc3[nH]2)c1` [Compound 58], the MIC in assay [1] and in assay [3] was at most 16 µg/mL throughout. For the same molecule, the concentration for half-maximal inhibition (IC50) in assay [2] is over 100 µM.

`CSc1cc(-n2cc3cc(-c4cc(CCC[C@@H](N)C5CC5)cc(Cl)c4F)[nH]c3nc2=O)ccc1[C@@H]1CCC[C@@H](CCNC(=N)CN)N1CCCF` [Compound 48]: the MIC in assay [1] and in assay [3] was at most 16 µg/mL in each case. In assay [2], the IC50 amounted to 13.5 µM.

As to `C[C@H](N)CCCc1cc(Cl)c(F)c(-c2cc3cn(-c4ccc([C@@H]5CCC[C@@H](CCNC(=N)[C@@H](C)N)N5)cc4)c(=O)nc3[nH]2)c1` [Compound 59], the MIC in assay [1] and in assay [3] was at most 16 µg/mL throughout. This molecule also came in with a concentration for half-maximal inhibition (IC50) in assay [2] of over 100 µM.

As to `C=C[C@H](N)CCCc1cc(-c2cc3cn(-c4ccc([C@@H]5CCC[C@@H](CCNC(=N)CN)N5CCCF)c(F)c4)c(=O)nc3[nH]2)cc(C(F)(F)F)c1` [Compound 63], the MIC in assay [1] and in assay [3] was at most 16 µg/mL in each case. In assay [2], this molecule returned an IC50 of over 100 µM.

`C=C[C@H](N)CCCc1cc(-c2cc3cn(-c4ccc([C@@H]5CCC[C@@H](CCNC(=N)CN)N5CCCF)cc4)c(=O)nc3[nH]2)cc(C(F)(F)F)c1` [Compound 56]: the MIC in assay [1] and in assay [3] was at most 16 µg/mL throughout. Besides, the IC50 in assay [2] was over 100 µM.

Turning to `C=C[C@@H](CCNC(=N)CN1CCOCC1)NCc1ccc(-n2cc3cc(-c4cc(CCC[C@H](C)N)cc(Cl)c4F)[nH]c3nc2=O)cc1` [Compound 6], the MIC in assay [1] and in assay [3] was at most 16 µg/mL in each case.

`C=C[C@@H](CCNC(=N)CN1CCOCC1)NCc1ccc(-n2cc3cc(-c4cc(CCC[C@H](C)N)cc(Cl)c4F)[nH]c3nc2=O)cc1` [Compound 1] came in with an IC50 in assay [2] of over 100 µM.
